Assay results as given in PMC4604124, “In Vitro Characterization of the Pharmacological Properties of the Anti-Cancer Chelator, Bp4eT, and Its Phase I Metabolites” (PLoS ONE, 2015).
Values joined by “and” are separate entries in the source; they are usually repeats but may differ in a detail not shown here. Equal values may be shown once.

How the values were obtained:
[1] = tested on: labile iron pool of MCF-7 cells; experiment: Calcein-AM assay, access to the labile iron pool; type: cell-based, human; parameters: Calcein fluorescence: unit not given here; conditions: 10 μM; for Calcein fluorescence: mean (průměr)
In short: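 MCF-7 cells iron-loaded with ferric ammonium citrate (530 μg/mL) for 24 h, then loaded with 2 μM calcein-AM for 30 min at 37°C in ADS buffer, pH 7.4. Calcein fluorescence dequenching (ex 488/em 530 nm) followed for 10 min after adding 10 μM compound; efficacy expressed as percentage of Bp4eT (100%).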

[2] = tested on: MCF-7 cells; experiment: Cell cycle analysis by flow cytometry (propidium iodide); type: cell-based, human; conditions: 0.1 μM, 72 h, control 33%
Procedure: To examine the effect of the agents on the cell cycle, MCF-7 cells were seeded in 60 mm Petri dishes at a density of 240,000 cells/dish and incubated with Bp4eT or its metabolites for 72 h/37°C. The cells were then harvested, fixed by ethanol and stained by propidium iodide (Molecular Probes, Eugene, OR, USA) for 30 min/37°C, as described previously. Cells were analyzed using Accuri C6 flow cytometer (Becton Dickinson and Company, San Jose, CA USA). Propidium iodide was excited at λex = 488 nm and fluorescence analyzed at λem = 585 nm (FL-2) with a total of 10,000 events collected per analysis.
(§1) SigmaStat for Windows 3.5 (Systat Software, San Jose, CA, USA) statistical software package was utilized to analyze results. The data are expressed as the mean ± SD of a given number of experiments. Statistical significance was determined using a one-way ANOVA with a Bonferroni post-hoc test or Student’s t-test. The results were considered to be statistically significant when p < 0.05. The IC50 values were calculated using CalcuSyn 2.0 software (Biosoft, Cambridge, UK). Cell cycle analysis was evaluated using MultiCycle AV Software (Phoenix Flow Systems, San Diego, CA, USA).

[3] = tested on: HCT116 human colorectal carcinoma cells; experiment: MTT cytotoxicity assay, HCT116 cells; type: cell-based; conditions: for IC50: MTT
Procedure: For cytotoxicity experiments, cancer cells were seeded at a density of 5,000 (MCF-7), 10,000 (HL-60) or 2,000 cells/well (HCT116 and A549) in 96-well plates (TPP) for 24 h/37°C prior to the addition of examined agents. The non-cancerous cells, 3T3 and H9c2 cells, were cultured for 24 h/37°C in 96-well plates at a density of 10,000 cells/well, the medium was then changed to serum- and pyruvate-free DMEM (Sigma-Aldrich) and incubated with the cells for another 24 h/37°C. The cytotoxic effects of Bp4eT and its metabolites were studied at different concentrations after a 72 h/37°C incubation. In order to aid the dissolution of the lipophilic ligands, 0.1% dimethyl sulfoxide (v/v) (DMSO; Sigma-Aldrich) was present in the culture medium of all groups. At this concentration, DMSO had no effect on cellular proliferation or viability.
The viability of cells were determined using an MTT assay (Sigma-Aldrich) according to previously established methods. The optical density of soluble MTT was measured at λ = 570 nm, subtracting the λ = 690 nm background using a Tecan Infinite 200M plate reader (Tecan Group, Männedorf, Switzerland). The viability or proliferation of experimental groups was expressed as a percentage of the untreated controls (100%).
as §1

[4] = tested on: caspase 8; experiment: Caspase activity, luminescent kit, caspase 8; type: cell-based, human; conditions: for kaspáza 8, raw signal / kaspáza 8, signal / viabilita: individual experiments by date; for kaspáza 8, raw signal, průměry / kaspáza 8, % kontroly / kaspáza 8, signal / viabilita, průměry: mean; for kaspáza 8, % kontroly / kaspáza 8, signal / viabilita / kaspáza 8, signal / viabilita, průměry: normalised to viability
Procedure: To assess the effect of the compounds on caspase activity, MCF-7 cells were incubated with 100 nM Bp4eT or its metabolites for 3, 24 or 72 h/37°C in 96-well plates, as described above. The cells were then lysed by adding 100 μL of cold lysis buffer (100 mM HEPES, 10 mM CHAPS, 10 mM D-L-dithiothreitol, pH 7.4) to 100 μL of medium in each well. Lysates were immediately frozen at -80°C. Thawed lysates were used to assess caspase activity using luminescent kits for caspases 3/7, 8 and 9 (Promega, Madison, WI, USA). The luminescence was measured using the Tecan Infinite 200M plate reader. Caspase activity in the experimental groups was corrected according to the cellular viability of each group and expressed as a percentage of activity of the untreated control (100%).

CCN=CNN=C(c1ccccc1)c1ccccn1 [Bp4eA, N ^3-ethyl-N ^1-[phenyl(pyridin-2-yl)methylene]formamidrazone]
Calcein fluorescence ([1]; 30 sec): 16.628 | Calcein fluorescence ([1]; 60 sec): 5.072 | Calcein fluorescence ([1]; 90 sec): 8.535 | Calcein fluorescence ([1]; 120 sec): 16.564 | Calcein fluorescence ([1]; 300 sec): 13.356 | Calcein fluorescence ([1]; 600 sec): 12.951 | Chelation efficacy: fluorescence of free calcein at t = 600 s as percentage of Bp4eT ([1]; MCF-7, mean of 6 experiments): 5.9% and 5.872% | Percentage of cells in the G2/M phase [2]: slight, but significant (p < 0.01–0.05) decrease | Therapeutic index, IC50 non-cancerous cells / IC50 neoplastic cells ([3]; 3T3/HCT116): 9.2 | Therapeutic index, IC50 non-cancerous cells / IC50 neoplastic cells ([3]; H9c2/HCT116): 3.7 | MTT, relative to control (0 = 100) ([3]; HCT116, 2 000 b/j, 1 μM, průměr (mean), sheet Bp4eA): 97.58 | MTT, relative to control (0 = 100) ([3]; HCT116, 2 000 b/j, 1 μM, single experiment (date), sheet Bp4eA): 99.1509 and 100.455 and 96.4816 and 94.6996 and 96.3825 and 98.3223 | MTT, relative to control (0 = 100) ([3]; HCT116, 2 000 b/j, 3 μM, průměr (mean), sheet Bp4eA): 97.04 | MTT, relative to control (0 = 100) ([3]; HCT116, 2 000 b/j, 3 μM, single experiment (date), sheet Bp4eA): 97.9686 and 98.7085 and 92.1521 and 93.3267 and 100.675 and 99.4316 | MTT, relative to control (0 = 100) ([3]; HCT116, 2 000 b/j, 10 μM, průměr (mean), sheet Bp4eA): 94.04 | MTT, relative to control (0 = 100) ([3]; HCT116, 2 000 b/j, 10 μM, single experiment (date), sheet Bp4eA): 94.463 and 96.9011 and 92.7169 and 93.3863 and 93.3144 and 93.4876 | MTT, relative to control (0 = 100) ([3]; HCT116, 2 000 b/j, 30 μM, průměr (mean), sheet Bp4eA): 89.95 | MTT, relative to control (0 = 100) ([3]; HCT116, 2 000 b/j, 30 μM, single experiment (date), sheet Bp4eA): 90.1675 and 87.4242 and 84.0067 and 87.0754 and 95.7934 and 95.2315 | MTT, relative to control (0 = 100) ([3]; HCT116, 2 000 b/j, 100 μM, průměr (mean), sheet Bp4eA): 58.40 | MTT, relative to control (0 = 100) ([3]; HCT116, 2 000 b/j, 100 μM, single experiment (date), sheet Bp4eA): 42.8559 and 58.6495 and 64.6288 and 67.4584 | MTT, relative to control (0 = 100) ([3]; HCT116, 2 000 b/j, 300 μM, průměr (mean), sheet Bp4eA): 9.79 | MTT, relative to control (0 = 100) ([3]; HCT116, 2 000 b/j, 1000 μM, průměr (mean), sheet Bp4eA): 2.29 | IC50 ([3]; HCT116, 2 000 b/j, single experiment (date), sheet Bp4eA): 115 µM and 125 µM (2×) | IC50 ([3]; Homo sapiens, HCT-116, 72 h, HCT116, 72 h/37°C, mean ± SD, n ≥ 4): 112 ± 20.9 µM | IC50 ([3]; Homo sapiens, HCT-116, HCT116, 2 000 b/j, průměr (mean), sheet Bp4eA): 112 µM | IC50 ([3]; Homo sapiens, HCT-116, HCT116, 2 000 b/j, single experiment (date), sheet Bp4eA): 80.9 µM | kaspáza 8, raw signal ([4]; 3 hodiny): 2039 and 1218.5 and 1153 and 868.5 | kaspáza 8, raw signal, průměry ([4]; 3 hodiny): 1319.75 | kaspáza 8, % kontroly ([4]; 3 hodiny): 98.01 % kontroly | kaspáza 8, signal / viabilita ([4]; 3 hodiny): 21.0632 and 12.5873 and 11.9107 and 8.972 | kaspáza 8, signal / viabilita, průměry ([4]; 3 hodiny): 13.6332 | kaspáza 8, raw signal ([4]; 24 hodin): 1556 and 1108.5 and 1675.5 and 1199 | kaspáza 8, raw signal, průměry ([4]; 24 hodin): 1384.75 | kaspáza 8, % kontroly ([4]; 24 hodin): 91.04 % kontroly | kaspáza 8, signal / viabilita ([4]; 24 hodin): 16.2773 and 11.596 and 17.5273 and 12.5427 | kaspáza 8, signal / viabilita, průměry ([4]; 24 hodin): 14.4858 | kaspáza 8, raw signal ([4]; 72 hodin): 6752 and 5806 and 7204 and 6996 | kaspáza 8, raw signal, průměry ([4]; 72 hodin): 6689.5 | kaspáza 8, % kontroly ([4]; 72 hodin): 103.53 % kontroly | kaspáza 8, signal / viabilita ([4]; 72 hodin): 72.5709 and 62.4033 and 77.4291 and 75.1935 | kaspáza 8, signal / viabilita, průměry ([4]; 72 hodin): 71.8992
